Article PMC4599563 (ACS Medicinal Chemistry Letters, 2015)
pIC50: −log10 of the molar value.

Biological target: mouse SR-BI (Mus musculus, UniProt Q61009)
Test: [3H]cholesteryl ester uptake assay
Format: cell-based

Chain of mouse SR-BI (Q61009 whole entry): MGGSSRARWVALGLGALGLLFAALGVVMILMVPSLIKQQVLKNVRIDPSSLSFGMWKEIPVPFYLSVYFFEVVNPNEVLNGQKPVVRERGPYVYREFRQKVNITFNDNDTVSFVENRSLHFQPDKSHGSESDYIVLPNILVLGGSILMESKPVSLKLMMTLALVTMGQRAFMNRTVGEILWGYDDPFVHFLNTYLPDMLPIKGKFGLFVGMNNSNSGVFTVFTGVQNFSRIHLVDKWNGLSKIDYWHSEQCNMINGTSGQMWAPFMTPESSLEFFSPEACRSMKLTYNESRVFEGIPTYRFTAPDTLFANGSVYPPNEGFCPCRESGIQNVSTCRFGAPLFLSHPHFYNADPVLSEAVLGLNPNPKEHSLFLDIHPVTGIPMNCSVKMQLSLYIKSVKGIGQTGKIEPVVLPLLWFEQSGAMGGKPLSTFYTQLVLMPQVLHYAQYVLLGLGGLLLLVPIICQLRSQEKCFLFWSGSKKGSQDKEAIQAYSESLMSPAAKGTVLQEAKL

pIC50: 6.03
SMILES: COc1c(NC(=O)C(=O)c2ccc(OCCN3CCOCC3)c3ccccc23)cc(C(C)(C)C)cc1NS(C)(=O)=O [ITX-5061]
